Drawing on patent publication US8084457B2, “Pharmaceutically active 4,6-disubstituted aminopyrimidine derivatives as modulators of protein kinases” (Lead Discovery Center GmbH, priority 2003, dated 2011), this text covers IC50 for 28 compounds.

Assay type in all cases: biochemical
The target of one assay is T1, CDK9/Cyclin T1 (Homo sapiens, UniProt P50750).
T1 construct: made in house; host or cells: HEK293 cells, recombinant adenovirus
Nature of the assay: Kinase assay using CDK9/Cyclin T1. As to conditions: read-out: CDK9 (activity range). An excerpt:
Cloning of CDK9 and Cyclin T1:
Both cDNA fragments were cloned by PCR into pDONR201 vectors using the gateway recombination system (Invitrogen) according to the manufacturer's recommendations. The fragments were subcloned into a gateway-adapted shuttle vector (pPM7) for production of recombinant adenovirus. All plasmids were verified by restriction digests and sequencing analysis.
Expression and Purification of CDK9/Cyclin T1 Proteins:
Expression and purification was in principle performed as described by Cotten et al. (M. Cotten et al., Nucleic acids research, 2003, 31(28), 128).
Kinase Assay Using CDK9/Cyclin T1:
Kinase assays were performed in principle as described by Cotten et al. (M. Cotten et al., Nucleic acids research, 2003, 31(28), 128).

For the next assay, the target named is CDK4 (Homo sapiens, UniProt P11802). In words: Kinase assay, CDK4 activity range (Table 2).
CDK4, sequence (P11802 whole entry, species assumed): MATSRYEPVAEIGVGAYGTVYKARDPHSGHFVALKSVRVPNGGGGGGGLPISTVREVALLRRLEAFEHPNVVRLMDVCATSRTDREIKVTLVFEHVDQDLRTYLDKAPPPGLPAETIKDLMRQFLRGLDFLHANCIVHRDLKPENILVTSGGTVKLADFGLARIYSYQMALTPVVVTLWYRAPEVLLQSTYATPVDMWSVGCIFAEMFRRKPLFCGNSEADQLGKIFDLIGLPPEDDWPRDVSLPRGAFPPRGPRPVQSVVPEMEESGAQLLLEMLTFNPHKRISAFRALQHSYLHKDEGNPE
CDK4, sequence (P24385 whole entry partner, species assumed): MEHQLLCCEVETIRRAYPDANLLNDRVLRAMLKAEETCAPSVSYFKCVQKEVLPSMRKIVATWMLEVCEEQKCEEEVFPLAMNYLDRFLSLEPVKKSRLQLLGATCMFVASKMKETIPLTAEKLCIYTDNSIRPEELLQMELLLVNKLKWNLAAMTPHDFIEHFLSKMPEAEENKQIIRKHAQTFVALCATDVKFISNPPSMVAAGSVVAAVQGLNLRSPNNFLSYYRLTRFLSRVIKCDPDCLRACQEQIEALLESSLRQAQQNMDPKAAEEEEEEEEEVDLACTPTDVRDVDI
The next assay has as its target T2, CDK2/CyclinA (Homo sapiens, UniProt P24941).
T2 construct: purchased Proqinase
Nature of the assay: Kinase assay determining CDK2/CyclinA activity. As to conditions: read-out: CDK2 (activity range). The method, then:
Kinase Assays Determining CDK2/CyclinA and CDK5/p35 Activity:
Kinase assays were performed as described by the manufacturers recommendations (Proqinase for CDK2/CyclinA and Upsate for CDK5/p35).

T1 sequence (P50750 whole entry): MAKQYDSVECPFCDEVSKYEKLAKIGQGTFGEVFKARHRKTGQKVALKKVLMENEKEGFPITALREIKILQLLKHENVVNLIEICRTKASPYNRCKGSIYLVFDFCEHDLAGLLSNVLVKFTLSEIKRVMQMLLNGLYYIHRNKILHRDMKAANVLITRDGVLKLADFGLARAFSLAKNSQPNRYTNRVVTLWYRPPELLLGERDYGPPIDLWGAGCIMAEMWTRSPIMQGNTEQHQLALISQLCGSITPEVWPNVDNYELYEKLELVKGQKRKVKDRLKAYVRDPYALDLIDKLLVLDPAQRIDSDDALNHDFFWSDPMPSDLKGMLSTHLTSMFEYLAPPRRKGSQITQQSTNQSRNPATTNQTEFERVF
T1 sequence (O60563 whole entry partner): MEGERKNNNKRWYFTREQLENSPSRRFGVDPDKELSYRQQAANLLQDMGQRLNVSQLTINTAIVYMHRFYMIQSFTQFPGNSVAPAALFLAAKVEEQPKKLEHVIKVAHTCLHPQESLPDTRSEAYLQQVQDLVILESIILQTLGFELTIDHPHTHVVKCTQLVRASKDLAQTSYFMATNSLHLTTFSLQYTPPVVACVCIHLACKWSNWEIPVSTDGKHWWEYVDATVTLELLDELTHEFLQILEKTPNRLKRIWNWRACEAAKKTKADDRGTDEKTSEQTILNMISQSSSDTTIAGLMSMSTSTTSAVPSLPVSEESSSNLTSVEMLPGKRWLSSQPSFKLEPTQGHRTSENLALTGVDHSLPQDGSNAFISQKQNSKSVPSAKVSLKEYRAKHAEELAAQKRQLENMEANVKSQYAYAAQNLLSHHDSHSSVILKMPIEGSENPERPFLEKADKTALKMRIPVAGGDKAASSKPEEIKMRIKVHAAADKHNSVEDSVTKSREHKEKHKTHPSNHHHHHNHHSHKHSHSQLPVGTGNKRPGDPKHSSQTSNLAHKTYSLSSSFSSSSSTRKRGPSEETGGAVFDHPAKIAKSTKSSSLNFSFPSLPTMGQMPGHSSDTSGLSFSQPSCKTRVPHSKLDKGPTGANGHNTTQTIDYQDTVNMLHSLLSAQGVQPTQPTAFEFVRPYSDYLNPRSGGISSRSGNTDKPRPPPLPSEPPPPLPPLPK

As to `COc1ccccc1-c1cc(Nc2ccc(NC(=O)[C@H]3CCCN3)cc2)ncn1` [(91)], the IC50 at CDK9/Cyclin T1 was 1 to 1000 nM; on CDK4 it was 1000 to 10000 nM; on CDK2/CyclinA, 1000 to 10000 nM.

On to `COc1ccccc1-c1cc(Nc2ccc(N3CCCC3=O)cc2)ncn1` [(9)], for which the IC50 on CDK9/Cyclin T1, against CDK4 and on CDK2/CyclinA was 1 to 1000 nM each time.

`COc1ccccc1-c1cc(Nc2ccc(NC(=O)CN(C)C)cc2)ncn1` [(46)]: the results for the IC50 on CDK9/Cyclin T1, at CDK4 and at CDK2/CyclinA were 1 to 1000 nM, 1000 to 10000 nM and 1000 to 10000 nM, respectively.

`COc1ccccc1-c1cc(Nc2ccc(NC(=O)C3CCN(C)CC3)cc2)ncn1` [(89)]: the IC50 on CDK9/Cyclin T1 was 1 to 1000 nM; on CDK4 it was 1000 to 10000 nM; at CDK2/CyclinA, 1000 to 10000 nM.

With `COc1ccccc1-c1cc(Nc2ccc(NC(=O)[C@H]3CCCCN3)cc2)ncn1` [(69)], the IC50 on CDK9/Cyclin T1 was 1 to 1000 nM; at CDK4, 1 to 1000 nM; on CDK2/CyclinA, 1000 to 10000 nM.

Consider `CSc1ccccc1-c1cc(Nc2ccc(NC(=O)[C@@H]3CCCCN3)cc2)ncn1` [(189)], for which the IC50 on CDK9/Cyclin T1 fell in the range of 1 to 1000 nM; against CDK4, 1 to 1000 nM; at CDK2/CyclinA, 1000 to 10000 nM.

With `COc1ccccc1-c1cc(Nc2cccc(N)c2)ncn1` [(124)], the IC50 lay within 1 to 1000 nM at CDK9/Cyclin T1, 1000 to 10000 nM on CDK4 and 1 to 1000 nM on CDK2/CyclinA.

For `COc1cccc(-c2cc(Nc3ccc(NC(=O)[C@@H]4CCCCN4)cc3)ncn2)c1OC` [(186)], the IC50 on CDK9/Cyclin T1 lay in the range of 1000 to 10000 nM; against CDK4 it was 1000 to 10000 nM; at CDK2/CyclinA it was 10000 to 250000 nM.

`NC1CCCCC1NC(=O)c1ccc(Nc2cc(-c3ccccc3OCc3ccccc3)ncn2)cc1` (stereo not drawn) [(198)]: the IC50 on CDK9/Cyclin T1, at CDK4 and on CDK2/CyclinA was 1 to 1000 nM each time.

As to `COc1ccccc1-c1cc(Nc2ccc(NS(C)(=O)=O)cc2)ncn1` [(33)], the IC50 on CDK9/Cyclin T1 lay within 1 to 1000 nM; on CDK4, 1000 to 10000 nM; at CDK2/CyclinA, 1 to 1000 nM.

Regarding `COc1ccccc1-c1cc(Nc2ccc(C(=O)N3CCOCC3)cc2)ncn1` [(147)], the IC50 on CDK9/Cyclin T1 and at CDK4 was 1000 to 10000 nM each time.

In the case of `O=C(Nc1ccc(Nc2cc(-c3ccccc3OC(F)(F)F)ncn2)cc1)[C@@H]1CCCCN1` [(190)], the IC50 on CDK9/Cyclin T1 and on CDK4 was 1000 to 10000 nM each time.

`O=Cc1cccc(-c2cc(Nc3ccc(NC(=O)[C@@H]4CCCCN4)cc3)ncn2)c1` [(168)]: the IC50 on CDK9/Cyclin T1 and at CDK4 was 1000 to 10000 nM throughout.

`COc1ccccc1-c1cc(Nc2ccc(NS(=O)(=O)c3ccc(-c4ccccc4)cc3)cc2)ncn1` [(34)]: the IC50 on CDK9/Cyclin T1 and on CDK2/CyclinA was 1000 to 10000 nM throughout.

`COc1ccccc1-c1cc(Nc2ccc(NC(=O)C(c3ccccc3)C(C)C)cc2)ncn1` (stereo not drawn) [(37)]: the IC50 on CDK9/Cyclin T1 is 1000 to 10000 nM; on CDK2/CyclinA, 10000 to 250000 nM.

Consider `COc1ccccc1-c1cc(Nc2ccc(NC(=O)c3ccncc3)cc2)ncn1` [(50)], for which the IC50 on CDK9/Cyclin T1 was 1000 to 10000 nM; on CDK2/CyclinA it was 10000 to 250000 nM.

In the case of `COc1ccccc1-c1cc(NCCc2ccncc2)ncn1` [(93)], the IC50 was in the range of 1000 to 10000 nM on CDK9/Cyclin T1 and 10000 to 250000 nM at CDK2/CyclinA.

As for `Cc1ccc(Nc2cc(-c3cccc(N)c3)ncn2)cc1NS(=O)(=O)c1cn(C)cn1` [(144)], the IC50 at CDK9/Cyclin T1 and on CDK2/CyclinA was 1 to 1000 nM in each case.

As to `Nc1ccc(C(=O)Nc2ccc(Nc3cc(NCCO)ncn3)cc2)cc1` [(60)], the IC50 at CDK9/Cyclin T1 is 1000 to 10000 nM; on CDK2/CyclinA, 10000 to 250000 nM.

`Cc1ccc(S(=O)(=O)Nc2ccc(Nc3cc(Cl)ncn3)cc2)cc1` [(24)]: the IC50 on CDK9/Cyclin T1 fell in the range of 10000 to 250000 nM; on CDK2/CyclinA, 1000 to 10000 nM.

As to `COc1ccccc1-c1cc(Nc2ccc(NC(=O)Cc3ccccc3)cc2)ncn1` [(71)], the IC50 at CDK9/Cyclin T1 fell in the range of 1 to 1000 nM; at CDK2/CyclinA, 1000 to 10000 nM.

As for `COc1ccccc1-c1cc(Nc2cccc(S(C)(=O)=O)c2)ncn1` [(185)], the IC50 at CDK9/Cyclin T1 and at CDK2/CyclinA was 1 to 1000 nM throughout.

Turning to `COc1ccc(-c2cc(Nc3ccc(C)c(NS(C)(=O)=O)c3)ncn2)cc1` [(3)], the IC50 fell in the range of 1000 to 10000 nM at CDK9/Cyclin T1 and 1 to 1000 nM on CDK2/CyclinA.

Regarding `COc1ccccc1-c1cc(N(C)c2ccc(N)cc2)ncn1` [(26)], the IC50 at CDK9/Cyclin T1 and on CDK2/CyclinA was 1000 to 10000 nM each time.

As for `COc1ccc(-c2cc(Nc3ccc(NS(=O)(=O)c4ccc(C)cc4)cc3)ncn2)cc1` [(1)], the IC50 lay in the range of 10000 to 250000 nM at CDK9/Cyclin T1 and 1000 to 10000 nM on CDK2/CyclinA.

With `CN1CCC(Nc2cc(Nc3ccc(NC(=O)C(C)(C)C)cc3)ncn2)CC1` [(74)], the IC50 on CDK9/Cyclin T1 and on CDK2/CyclinA was 10000 to 250000 nM throughout.

As to `COc1ccccc1-c1cc(Nc2ccc(NC(=O)c3c[nH]c4ccccc34)cc2)ncn1` [(133)], the IC50 is 1 to 1000 nM at CDK9/Cyclin T1 and 1000 to 10000 nM on CDK2/CyclinA.

On to `COc1ccccc1-c1cc(Nc2ccc(NC(=O)c3ccc(N)cc3)cc2)ncn1` [(8)], for which the IC50 on CDK9/Cyclin T1 is 1 to 1000 nM; on CDK2/CyclinA, 1000 to 10000 nM.
